In US7118895B2, “Process for producing aglycon by using diglycosidase and flavor-improved food containing the aglycon and converting agent to be used in the process” (Amano Enzyme Inc., priority 2000, dated 2006):

Test system: Crude diglycosidase
Assay: Examination of pH in the conversion into isoflavone aglycons by diglycosidase using soybean materials
Format: biochemical, Penicillium multicolor IAM7153
Settings: for Decomposition efficiency of glycitin family in roasted soy flour / Decomposition efficiency of glycitin family in soymilk: 55° C.
In short: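 HPLC readout: isoflavone glycosides vs aglycons. Substrates: 50 mg soy material (roasted flour, soymilk, defatted bean, concentrated protein), pH 2–11 (HCl/NaOH). Crude diglycosidase solution 1.88 AU/mL, matched pH; 55° C; quenched with ethanol at 0/1/3/6 h; centrifuged 15,000 rpm, 4° C, 10 min.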

[1] = pH6.6, heat treatment of enzyme: no, reaction time 0 h
[2] = pH6.6, heat treatment of enzyme: no, reaction time 1 h
[3] = pH6.6, heat treatment of enzyme: no, reaction time 3 h
[4] = pH6.6, heat treatment of enzyme: no, reaction time 6 h
[5] = pH6.6, heat treatment of enzyme: yes, reaction time 6 h

Decomposition efficiency of glycitin family in concentrated soybean protein (pH1.6, heat treatment of enzyme: no, reaction time 0 h): 0.4%
Decomposition efficiency of glycitin family in concentrated soybean protein (pH1.6, heat treatment of enzyme: no, reaction time 1 h): 0.4%
Decomposition efficiency of glycitin family in concentrated soybean protein (pH1.6, heat treatment of enzyme: no, reaction time 3 h): 0.4%
Decomposition efficiency of glycitin family in concentrated soybean protein (pH1.6, heat treatment of enzyme: no, reaction time 6 h): 0.4%
Decomposition efficiency of glycitin family in concentrated soybean protein (pH1.6, heat treatment of enzyme: yes, reaction time 6 h): 0.4%
Decomposition efficiency of glycitin family in roasted soy flour (pH2, heat treatment of enzyme no, reaction time 0 h): not detected
Decomposition efficiency of glycitin family in roasted soy flour (pH2, heat treatment of enzyme no, reaction time 1 h): not detected
Decomposition efficiency of glycitin family in roasted soy flour (pH2, heat treatment of enzyme no, reaction time 3 h): not detected
Decomposition efficiency of glycitin family in roasted soy flour (pH2, heat treatment of enzyme no, reaction time 6 h): not detected
Decomposition efficiency of glycitin family in roasted soy flour (pH2, heat treatment of enzyme yes, reaction time 6 h): not detected
Decomposition efficiency of glycitin family in soymilk (pH2.3, heat treatment of enzyme no, reaction time 0 h): 42.6
Decomposition efficiency of glycitin family in soymilk (pH2.3, heat treatment of enzyme no, reaction time 1 h): 51.3
Decomposition efficiency of glycitin family in soymilk (pH2.3, heat treatment of enzyme no, reaction time 3 h): 47.7
Decomposition efficiency of glycitin family in soymilk (pH2.3, heat treatment of enzyme no, reaction time 6 h): 46.5
Decomposition efficiency of glycitin family in soymilk (pH2.3, heat treatment of enzyme yes, reaction time 6 h): 41.3
Decomposition efficiency of glycitin family in defatted soybean (pH2.6, heat treatment of enzyme: no, reaction time 0 h): 100.0%
Decomposition efficiency of glycitin family in defatted soybean (pH2.6, heat treatment of enzyme: no, reaction time 1 h): 100.0%
Decomposition efficiency of glycitin family in defatted soybean (pH2.6, heat treatment of enzyme: no, reaction time 3 h): 100.0%
Decomposition efficiency of glycitin family in defatted soybean (pH2.6, heat treatment of enzyme: no, reaction time 6 h): 100.0%
Decomposition efficiency of glycitin family in defatted soybean (pH2.6, heat treatment of enzyme: yes, reaction time 6 h): 100.0%
Decomposition efficiency of glycitin family in concentrated soybean protein (pH2.7, heat treatment of enzyme: no, reaction time 0 h): 0.4%
Decomposition efficiency of glycitin family in concentrated soybean protein (pH2.7, heat treatment of enzyme: no, reaction time 1 h): 0.5%
Decomposition efficiency of glycitin family in concentrated soybean protein (pH2.7, heat treatment of enzyme: no, reaction time 3 h): 0.5%
Decomposition efficiency of glycitin family in concentrated soybean protein (pH2.7, heat treatment of enzyme: no, reaction time 6 h): 0.5%
Decomposition efficiency of glycitin family in concentrated soybean protein (pH2.7, heat treatment of enzyme: yes, reaction time 6 h): 0.4%
Decomposition efficiency of glycitin family in roasted soy flour (pH3, heat treatment of enzyme no, reaction time 0 h): not detected
Decomposition efficiency of glycitin family in roasted soy flour (pH3, heat treatment of enzyme no, reaction time 1 h): not detected
Decomposition efficiency of glycitin family in roasted soy flour (pH3, heat treatment of enzyme no, reaction time 3 h): not detected
Decomposition efficiency of glycitin family in roasted soy flour (pH3, heat treatment of enzyme no, reaction time 6 h): not detected
Decomposition efficiency of glycitin family in roasted soy flour (pH3, heat treatment of enzyme yes, reaction time 6 h): not detected
Decomposition efficiency of glycitin family in defatted soybean (pH3.4, heat treatment of enzyme: no, reaction time 0 h): 100.0%
Decomposition efficiency of glycitin family in defatted soybean (pH3.4, heat treatment of enzyme: no, reaction time 1 h): 100.0%
Decomposition efficiency of glycitin family in defatted soybean (pH3.4, heat treatment of enzyme: no, reaction time 3 h): 100.0%
Decomposition efficiency of glycitin family in defatted soybean (pH3.4, heat treatment of enzyme: no, reaction time 6 h): 100.0%
Decomposition efficiency of glycitin family in defatted soybean (pH3.4, heat treatment of enzyme: yes, reaction time 6 h): 100.0%
Decomposition efficiency of glycitin family in soymilk (pH3.5, heat treatment of enzyme no, reaction time 0 h): 42.6
Decomposition efficiency of glycitin family in soymilk (pH3.5, heat treatment of enzyme no, reaction time 1 h): 21.9
Decomposition efficiency of glycitin family in soymilk (pH3.5, heat treatment of enzyme no, reaction time 3 h): not detected
Decomposition efficiency of glycitin family in soymilk (pH3.5, heat treatment of enzyme no, reaction time 6 h): not detected
Decomposition efficiency of glycitin family in soymilk (pH3.5, heat treatment of enzyme yes, reaction time 6 h): 38.2
Decomposition efficiency of glycitin family in concentrated soybean protein (pH3.7, heat treatment of enzyme: no, reaction time 0 h): 0.4%
Decomposition efficiency of glycitin family in concentrated soybean protein (pH3.7, heat treatment of enzyme: no, reaction time 1 h): 0.5%
Decomposition efficiency of glycitin family in concentrated soybean protein (pH3.7, heat treatment of enzyme: no, reaction time 3 h): 0.4%
Decomposition efficiency of glycitin family in concentrated soybean protein (pH3.7, heat treatment of enzyme: no, reaction time 6 h): 0.4%
Decomposition efficiency of glycitin family in concentrated soybean protein (pH3.7, heat treatment of enzyme: yes, reaction time 6 h): 0.4%
Decomposition efficiency of glycitin family in roasted soy flour (pH4, heat treatment of enzyme no, reaction time 0 h): not detected
Decomposition efficiency of glycitin family in roasted soy flour (pH4, heat treatment of enzyme no, reaction time 1 h): not detected
Decomposition efficiency of glycitin family in roasted soy flour (pH4, heat treatment of enzyme no, reaction time 3 h): not detected
Decomposition efficiency of glycitin family in roasted soy flour (pH4, heat treatment of enzyme no, reaction time 6 h): not detected
Decomposition efficiency of glycitin family in roasted soy flour (pH4, heat treatment of enzyme yes, reaction time 6 h): not detected
Decomposition efficiency of glycitin family in soymilk (pH4.8, heat treatment of enzyme no, reaction time 0 h): 43.2
Decomposition efficiency of glycitin family in soymilk (pH4.8, heat treatment of enzyme no, reaction time 1 h): 37.0
Decomposition efficiency of glycitin family in soymilk (pH4.8, heat treatment of enzyme no, reaction time 3 h): 21.1
Decomposition efficiency of glycitin family in soymilk (pH4.8, heat treatment of enzyme no, reaction time 6 h): 8.3
Decomposition efficiency of glycitin family in soymilk (pH4.8, heat treatment of enzyme yes, reaction time 6 h): 39.2
Decomposition efficiency of glycitin family in defatted soybean (pH4.8, heat treatment of enzyme: no, reaction time 0 h): 64.0%
Decomposition efficiency of glycitin family in defatted soybean (pH4.8, heat treatment of enzyme: no, reaction time 1 h): 40.1%
Decomposition efficiency of glycitin family in defatted soybean (pH4.8, heat treatment of enzyme: no, reaction time 3 h): 37.5%
Decomposition efficiency of glycitin family in defatted soybean (pH4.8, heat treatment of enzyme: no, reaction time 6 h): 31.9%
Decomposition efficiency of glycitin family in defatted soybean (pH4.8, heat treatment of enzyme: yes, reaction time 6 h): 56.2%
Decomposition efficiency of glycitin family in roasted soy flour (pH5, heat treatment of enzyme no, reaction time 0 h): not detected
Decomposition efficiency of glycitin family in roasted soy flour (pH5, heat treatment of enzyme no, reaction time 1 h): not detected
Decomposition efficiency of glycitin family in roasted soy flour (pH5, heat treatment of enzyme no, reaction time 3 h): not detected
Decomposition efficiency of glycitin family in roasted soy flour (pH5, heat treatment of enzyme no, reaction time 6 h): not detected
Decomposition efficiency of glycitin family in roasted soy flour (pH5, heat treatment of enzyme yes, reaction time 6 h): not detected
Decomposition efficiency of glycitin family in concentrated soybean protein (pH5.1, heat treatment of enzyme: no, reaction time 0 h): 0.4%
Decomposition efficiency of glycitin family in concentrated soybean protein (pH5.1, heat treatment of enzyme: no, reaction time 1 h): 0.6%
Decomposition efficiency of glycitin family in concentrated soybean protein (pH5.1, heat treatment of enzyme: no, reaction time 3 h): 0.6%
Decomposition efficiency of glycitin family in concentrated soybean protein (pH5.1, heat treatment of enzyme: no, reaction time 6 h): 0.6%
Decomposition efficiency of glycitin family in concentrated soybean protein (pH5.1, heat treatment of enzyme: yes, reaction time 6 h): 0.4%
Decomposition efficiency of glycitin family in defatted soybean (pH5.4, heat treatment of enzyme: no, reaction time 0 h): 64.0%
Decomposition efficiency of glycitin family in defatted soybean (pH5.4, heat treatment of enzyme: no, reaction time 1 h): 45.1%
Decomposition efficiency of glycitin family in defatted soybean (pH5.4, heat treatment of enzyme: no, reaction time 3 h): 100.0%
Decomposition efficiency of glycitin family in defatted soybean (pH5.4, heat treatment of enzyme: no, reaction time 6 h): 32.3%
Decomposition efficiency of glycitin family in defatted soybean (pH5.4, heat treatment of enzyme: yes, reaction time 6 h): 39.3%
Decomposition efficiency of glycitin family in soymilk (pH6.2, heat treatment of enzyme no, reaction time 0 h): 43.2
Decomposition efficiency of glycitin family in soymilk (pH6.2, heat treatment of enzyme no, reaction time 1 h): 46.4
Decomposition efficiency of glycitin family in soymilk (pH6.2, heat treatment of enzyme no, reaction time 3 h): 34.5
Decomposition efficiency of glycitin family in soymilk (pH6.2, heat treatment of enzyme no, reaction time 6 h): 29.6
Decomposition efficiency of glycitin family in soymilk (pH6.2, heat treatment of enzyme yes, reaction time 6 h): 37.6
Decomposition efficiency of glycitin family in roasted soy flour (pH6.5, heat treatment of enzyme no, reaction time 0 h): not detected
Decomposition efficiency of glycitin family in roasted soy flour (pH6.5, heat treatment of enzyme no, reaction time 1 h): not detected
Decomposition efficiency of glycitin family in roasted soy flour (pH6.5, heat treatment of enzyme no, reaction time 3 h): not detected
Decomposition efficiency of glycitin family in roasted soy flour (pH6.5, heat treatment of enzyme no, reaction time 6 h): not detected
Decomposition efficiency of glycitin family in roasted soy flour (pH6.5, heat treatment of enzyme yes, reaction time 6 h): not detected
Decomposition efficiency of glycitin family in concentrated soybean protein [1]: 0.4%
Decomposition efficiency of glycitin family in defatted soybean [1]: 39.6%
Decomposition efficiency of glycitin family in concentrated soybean protein [2]: 0.4%
Decomposition efficiency of glycitin family in defatted soybean [2]: 52.9%
Decomposition efficiency of glycitin family in concentrated soybean protein [3]: 0.4%
Decomposition efficiency of glycitin family in defatted soybean [3]: 53.6%
Decomposition efficiency of glycitin family in concentrated soybean protein [4]: 0.4%
Decomposition efficiency of glycitin family in defatted soybean [4]: 58.1%
Decomposition efficiency of glycitin family in concentrated soybean protein [5]: 0.4%
Decomposition efficiency of glycitin family in defatted soybean [5]: 50.3%
Decomposition efficiency of glycitin family in soymilk (pH7.2, heat treatment of enzyme no, reaction time 0 h): 43.9
Decomposition efficiency of glycitin family in soymilk (pH7.2, heat treatment of enzyme no, reaction time 1 h): 48.8
Decomposition efficiency of glycitin family in soymilk (pH7.2, heat treatment of enzyme no, reaction time 3 h): 46.2
Decomposition efficiency of glycitin family in soymilk (pH7.2, heat treatment of enzyme no, reaction time 6 h): 41.6
Decomposition efficiency of glycitin family in soymilk (pH7.2, heat treatment of enzyme yes, reaction time 6 h): 37.5
Decomposition efficiency of glycitin family in defatted soybean (pH7.8, heat treatment of enzyme: no, reaction time 0 h): 66.8%
Decomposition efficiency of glycitin family in defatted soybean (pH7.8, heat treatment of enzyme: no, reaction time 1 h): 57.5%
Decomposition efficiency of glycitin family in defatted soybean (pH7.8, heat treatment of enzyme: no, reaction time 3 h): 53.2%
Decomposition efficiency of glycitin family in defatted soybean (pH7.8, heat treatment of enzyme: no, reaction time 6 h): 49.1%
Decomposition efficiency of glycitin family in defatted soybean (pH7.8, heat treatment of enzyme: yes, reaction time 6 h): 55.8%
Decomposition efficiency of glycitin family in roasted soy flour (pH8.5, heat treatment of enzyme no, reaction time 0 h): not detected
Decomposition efficiency of glycitin family in roasted soy flour (pH8.5, heat treatment of enzyme no, reaction time 1 h): not detected
Decomposition efficiency of glycitin family in roasted soy flour (pH8.5, heat treatment of enzyme no, reaction time 3 h): not detected
Decomposition efficiency of glycitin family in roasted soy flour (pH8.5, heat treatment of enzyme no, reaction time 6 h): not detected
Decomposition efficiency of glycitin family in roasted soy flour (pH8.5, heat treatment of enzyme yes, reaction time 6 h): not detected
Decomposition efficiency of glycitin family in concentrated soybean protein (pH8.6, heat treatment of enzyme: no, reaction time 0 h): 0.4%
Decomposition efficiency of glycitin family in concentrated soybean protein (pH8.6, heat treatment of enzyme: no, reaction time 1 h): 0.4%
Decomposition efficiency of glycitin family in concentrated soybean protein (pH8.6, heat treatment of enzyme: no, reaction time 3 h): 0.4%
Decomposition efficiency of glycitin family in concentrated soybean protein (pH8.6, heat treatment of enzyme: no, reaction time 6 h): 0.4%
Decomposition efficiency of glycitin family in concentrated soybean protein (pH8.6, heat treatment of enzyme: yes, reaction time 6 h): 0.3%
Decomposition efficiency of glycitin family in soymilk (pH11.6, heat treatment of enzyme no, reaction time 0 h): 39.4
Decomposition efficiency of glycitin family in soymilk (pH11.6, heat treatment of enzyme no, reaction time 1 h): 50.4
Decomposition efficiency of glycitin family in soymilk (pH11.6, heat treatment of enzyme no, reaction time 3 h): 46.5
Decomposition efficiency of glycitin family in soymilk (pH11.6, heat treatment of enzyme no, reaction time 6 h): 44.0
Decomposition efficiency of glycitin family in soymilk (pH11.6, heat treatment of enzyme yes, reaction time 6 h): 34.4
SMILES: COc1cc2c(=O)c(-c3ccc(O)cc3)coc2cc1O[C@@H]1O[C@H](COC(=O)CC(=O)O)[C@@H](O)[C@H](O)[C@H]1O [malonylglycitin, 6″-O-malonylglycitin]
